Test results taken from US12583866B2, “Pyrido[2,3-b][1,4]oxazines or tetrahydropyrido[2,3-b][1,4]oxazepines as IAP antagonists” (BEIGENE, LTD., priority 2020, dated 2026).
Where a name gives a salt, the structure may show the parent alone.

Tests used:
[1] = biological target: T1, recombinant human XIAP-BIR3 protein (Homo sapiens, UniProt P98170); test: Recombinant human XIAP-BIR3 biochemical assay (HTRF, peptide displacement); conditions: 3.7 nM XIAP-BIR3, 7.6 nM AbuRPF-K(5-Fam)-NH2 peptide, read-out: Protein binding IC50 (nM) XIAP
T1 construct: recombinant human XIAP-BIR3 protein; purchased Reaction biology APT-11-374
In short: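 HTRF peptide displacement with 7.6 nM 5-Fam-labelled AbuRPF peptide, anti-6His Tb donor and 3.7 nM recombinant XIAP-BIR3. Protein and compound (10-point, 4-fold from 10 µM) were preincubated 1 h RT in HEPES pH 7.5 buffer before each addition, each 1 h. IC50 by four-parameter fit of the 520/490 nm ratio.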

[2] = biological target: T2, recombinant human cIAP2-BIR3 protein (Homo sapiens, UniProt Q13489); test: Recombinant human c-IAP2-BIR3 biochemical assay (HTRF, peptide displacement); conditions: 3.7 nM cIAP2-BIR3, 3.7 nM AbuRPF-K(5-Fam)-NH2 peptide, read-out: Protein binding IC50 (nM) c-IAP2
T2 construct: recombinant human cIAP2-BIR3 protein; purchased Reaction biology APT-11-372
In short: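 HTRF peptide-displacement readout (ex337, em520/490 ratio) after sequential 1 h room-temperature steps: compound with 3.7 nM protein, then 3.7 nM 5-Fam-labelled AbuRPF peptide, then Tb-cryptate anti-6His antibody. Buffer pH 7.5 HEPES with NaCl, Tween-20, DTT; 10-point 4-fold dilutions from 10 uM; four-parameter logistic IC50.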

[3] = biological target: T3, recombinant human cIAP1-BIR3 protein (Homo sapiens, UniProt Q13490); test: Recombinant human c-IAP1-BIR3 biochemical assay (HTRF, peptide displacement); conditions: 1.2 nM cIAP1-BIR3, 3 nM AbuRPF-K(5-Fam)-NH2 peptide, read-out: Protein binding IC50 (nM) c-IAP1
T3 construct: recombinant human cIAP1-BIR3 protein; purchased Reaction biology APT-11-370
In short: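 HTRF peptide displacement: after 1 h compound pre-incubation (max 10 uM, 4-fold dilutions, 10 points) with 1.2 nM protein in HEPES pH 7.5 buffer, 3 nM 5-Fam-labelled AbuRPF-K peptide and Tb-anti-6His were each added for 1 h at room temperature. Inhibition taken from 520/490 nm ratio, fitted four-parameter logistic for IC50.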

T2 sequence (Q13489 238-349 limits assumed): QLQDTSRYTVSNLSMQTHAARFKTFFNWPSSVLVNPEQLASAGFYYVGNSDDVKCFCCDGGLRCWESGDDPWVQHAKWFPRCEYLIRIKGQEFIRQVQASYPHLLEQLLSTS
T1 sequence (P98170 241-356 limits assumed): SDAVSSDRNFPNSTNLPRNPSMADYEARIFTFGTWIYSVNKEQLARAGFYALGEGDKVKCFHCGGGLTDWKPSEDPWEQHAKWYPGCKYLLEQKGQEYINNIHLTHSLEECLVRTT
T3 sequence (Q13490 253-363 limits assumed): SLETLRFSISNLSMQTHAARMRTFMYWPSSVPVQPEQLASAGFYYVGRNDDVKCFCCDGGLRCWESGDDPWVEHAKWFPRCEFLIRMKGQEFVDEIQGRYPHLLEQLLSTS

Row | IC50 [1] [nM] | IC50 [2] [nM] | IC50 [3] [nM] | SMILES
1 | 23 | 3.2 | 1.5 | C[C@@H]1CN(CC(=O)N2CCOc3nc(C(N)=O)c(Cc4ccc(F)cc4)cc32)[C@@H](CN2CCOC[C@H]2C)CN1 [Compound 3, 7-(4-fluorobenzyl)-1-(2-((2R,5R)-5-methyl-2-(((R)-3-methylmorpholino)methyl)piperazin-1-yl)acetyl)-2,3-dihydro-1H-pyrido[2,3-b][1,4]oxazine-6-carboxamide formate]
2 | 2.9 | 0.29 | 0.19 | CCS(=O)(=O)Nc1nc2c(cc1Cc1ccc(F)cc1)N(C(=O)CN1C[C@@H](C)NC[C@@H]1CN1[C@H](C)COC[C@H]1C)[C@@H](C)CO2 [Compound 122]
3 | 2.7 | 0.25 | 0.13 | C[C@@H]1CN(CC(=O)N2c3cc(Cc4ccc(F)cc4)cnc3OC[C@@H]2C)[C@@H](CN2CCOC[C@H]2C)CN1 [Compound 19A, 1-((S)-7-(4-fluorobenzyl)-2-methyl-2,3-dihydro-1H-pyrido[2,3-b][1,4]oxazin-1-yl)-2-((2R,5R)-5-methyl-2-(((R)-3-methylmorpholino)methyl)piperazin-1-yl)ethan-1-one]
4 | 23 | 0.32 | 0.25 | COC[C@H]1COc2ncc(Cc3ccc(F)cc3)cc2N1C(=O)CN1C[C@@H](C)NC[C@@H]1CN1[C@H](C)COC[C@H]1C [Compound 34, 2-((2R,5R)-2-(((3R,5R)-3,5-dimethylmorpholino)methyl)-5-methylpiperazin-1-yl)-1-((S)-7-(4-fluorobenzyl)-2-(methoxymethyl)-2,3-dihydro-1H-pyrido[2,3-b][1,4]oxazin-1-yl)ethan-1-one]
5 | 15 | 0.95 | 0.89 | C[C@@H]1CN(CC(=O)N2c3cc(Cc4ccc(F)cc4)c(CO)nc3OC[C@@H]2C)[C@@H](CN2C3CCC2COC3)CN1 [Compound 86]
6 | 5.9 | 0.52 | 0.25 | COCCNC(=O)c1nc2c(cc1Cc1ccc(F)cc1)N(C(=O)CN1C[C@@H](C)NC[C@@H]1CN1[C@H](C)COC[C@H]1C)[C@@H](C)CO2 [Example 66, (S)-1-(2-((2R,5R)-2-(((3R,5R)-3,5-dimethylmorpholino)methyl)-5-methylpiperazin-1-yl)acetyl)-7-(4-fluorobenzyl)-N-(2-methoxyethyl)-2-methyl-2,3-dihydro-1H-pyrido[2,3-b][1,4]oxazine-6-carboxamide]
7 | 8.2 | 0.14 | 0.09 | C[C@@H]1CN(CC(=O)N2c3cc(Cc4ccc(F)cc4)cnc3OC[C@@H]2COc2ccccc2)[C@@H](CN2[C@H](C)COC[C@H]2C)CN1 [Compound 40, 2-((2R,5R)-2-(((3R,5R)-3,5-dimethylmorpholino)methyl)-5-methylpiperazin-1-yl)-1-((S)-7-(4-fluorobenzyl)-2-(phenoxymethyl)-2,3-dihydro-1H-pyrido[2,3-b][1,4]oxazin-1-yl)ethan-1-one]
8 | 46 | 0.99 | 0.33 | COC[C@H]1COc2ncc(Cc3ccc(F)cc3)cc2N1C(=O)CN1C[C@@H](C)NC[C@@H]1CN1CCOC[C@H]1C [Compound 35, 1-((S)-7-(4-fluorobenzyl)-2-(methoxymethyl)-2,3-dihydro-1H-pyrido[2,3-b][1,4]oxazin-1-yl)-2-((2R,5R)-5-methyl-2-(((R)-3-methylmorpholino)methyl)piperazin-1-yl)ethan-1-one]
9 | 5.2 | 0.33 | 0.19 | C[C@@H]1CN(CC(=O)N2c3cc(Cc4ccc(F)cc4)c(C(=O)N[C@H]4CCOC4)nc3OC[C@@H]2C)[C@@H](CN2[C@H](C)COC[C@H]2C)CN1 [Example 79, (S)-1-(2-((2R,5R)-2-(((3R,5R)-3,5-dimethylmorpholino)methyl)-5-methylpiperazin-1-yl)acetyl)-7-(4-fluorobenzyl)-2-methyl-N—((S)-tetrahydrofuran-3-yl)-2,3-dihydro-1H-pyrido[2,3-b][1,4]oxazine-6-carboxamide]
10 | 2.3 | 0.29 | 0.25 | C[C@@H]1CN(CC(=O)N2c3cc(Cc4ccc(F)cc4)c(C(=O)NCC(F)(F)F)nc3OC[C@@H]2C)[C@@H](CN2[C@H](C)COC[C@H]2C)CN1 [Example 64]
11 | 11.9 | 0.75 | 0.36 | C[C@@H]1CN(CC(=O)N2c3cc(Cc4ccc(F)cc4)c(NC4CC4)nc3OC[C@@H]2C)[C@@H](CN2[C@H](C)COC[C@H]2C)CN1 [Compound 110]
12 | 12.4 | 0.63 | 0.35 | C[C@@H]1CN(CC(=O)N2c3cc(Cc4ccc(F)cc4)c(C(N)=O)nc3OC[C@@H]2C)[C@@H](CN2CCOCC23CC3)CN1 [Compound 88, (S)-1-(2-((2R,5R)-2-((7-oxa-4-azaspiro[2.5]octan-4-yl)methyl)-5-methylpiperazin-1-yl)acetyl)-7-(4-fluorobenzyl)-2-methyl-2,3-dihydro-1H-pyrido[2,3-b][1,4]oxazine-6-carboxamide]
13 | 49 | 0.83 | 0.26 | CC(C)OC[C@H]1COc2ncc(Cc3ccc(F)cc3)cc2N1C(=O)CN1C[C@@H](C)NC[C@@H]1CN1CCOC[C@H]1C [Compound 38, 1-((S)-7-(4-fluorobenzyl)-2-(isopropoxymethyl)-2,3-dihydro-1H-pyrido[2,3-b][1,4]oxazin-1-yl)-2-((2R,5R)-5-methyl-2-(((R)-3-methylmorpholino)methyl)piperazin-1-yl)ethan-1-one]
14 | 33 | 27 | 6.4 | C[C@@H]1CN(CC(=O)N2c3cc(Cc4ccc(F)cc4)cnc3OC[C@H]2C)[C@@H](CN2CCOC[C@H]2C)CN1 [Compound 19B, 1-((R)-7-(4-fluorobenzyl)-2-methyl-2,3-dihydro-1H-pyrido[2,3-b][1,4]oxazin-1-yl)-2-((2R,5R)-5-methyl-2-(((R)-3-methylmorpholino)methyl)piperazin-1-yl)ethan-1-one]
15 | 14 | 0.93 | 0.44 | C[C@@H]1CN(CC(=O)N2c3cc(Cc4ccc(F)cc4)c(CO)nc3OC[C@@H]2C)[C@@H](CN2CCOCC23CC3)CN1 [Compound 50, 2-((2R,5R)-2-((7-oxa-4-azaspiro[2.5]octan-4-yl)methyl)-5-methylpiperazin-1-yl)-1-((S)-7-(4-fluorobenzyl)-6-(hydroxymethyl)-2-methyl-2,3-dihydro-1H-pyrido[2,3-b][1,4]oxazin-1-yl)ethan-1-one]
16 | 2.5 | 0.37 | 0.19 | C[C@@H]1CN(CC(=O)N2c3cc(Cc4ccc(F)cc4)c(C(=O)N4CC[C@@H](F)C4)nc3OC[C@@H]2C)[C@@H](CN2[C@H](C)COC[C@H]2C)CN1 [Compound 101, 2-((2R,5R)-2-(((3R,5R)-3,5-dimethylmorpholino)methyl)-5-methylpiperazin-1-yl)-1-((S)-7-(4-fluorobenzyl)-6-((R)-3-fluoropyrrolidine-1-carbonyl)-2-methyl-2,3-dihydro-1H-pyrido[2,3-b][1,4]oxazin-1-yl)ethan-1-one]
17 | 3.8 | 0.34 | 0.22 | C[C@@H]1CN(CC(=O)N2c3cc(Cc4ccc(F)cc4)c(OCCN4CCOCC4)nc3OC[C@@H]2C)[C@@H](CN2[C@H](C)COC[C@H]2C)CN1 [Compound 90]
18 | 122 | 9.8 | 3.6 | C[C@@H]1CN(CC(=O)N2CCOc3ncc(Cc4ccc(F)cc4)cc32)[C@@H](CN2C[C@H]3C[C@@H]2CO3)CN1 [Compound 14]
19 | 7.7 | 0.57 | 0.16 | COCCNc1nc2c(cc1Cc1ccc(F)cc1)N(C(=O)CN1C[C@@H](C)NC[C@@H]1CN1[C@H](C)COC[C@H]1C)[C@@H](C)CO2 [Compound 108]
20 | 6.5 | 0.54 | 0.2 | C[C@@H]1CN(CC(=O)N2c3cc(Cc4ccc(F)cc4)c(C(=O)NCCN4CCOCC4)nc3OC[C@@H]2C)C(CN2[C@H](C)COC[C@H]2C)CN1 (stereo partly drawn) [Example 75, (5)-1-(2-((2R,5R)-2-(((3R,5R)-3,5-dimethylmorpholino)methyl)-5-methylpiperazin-1-yl)acetyl)-7-(4-fluorobenzyl)-2-methyl-N-(2-morpholinoethyl)-2,3-dihydro-1H-pyrido[2,3-b][1,4]oxazine-6-carboxamide]
21 | 11 | 0.51 | 0.25 | C[C@@H]1CN(CC(=O)N2c3cc(Cc4ccc(F)cc4)c(C(=O)N4CC(O)C4)nc3OC[C@@H]2C)[C@@H](CN2[C@H](C)COC[C@H]2C)CN1 [Example 74, 2-((2R,5R)-2-(((3R,5R)-3,5-dimethylmorpholino)methyl)-5-methylpiperazin-1-yl)-1-((S)-7-(4-fluorobenzyl)-6-(3-hydroxyazetidine-1-carbonyl)-2-methyl-2,3-dihydro-1H-pyrido[2,3-b][1,4]oxazin-1-yl)ethan-1-one]
